The values below come from patent US10745416B2, “Macrocyclic compounds for treating disease” (Turning Point Therapeutics, Inc., priority 2017, dated 2020).

Common to all, as to assay: Cell proliferation assay (CellTiter-Glo, 72 hours)
(ATP-based viability assays read luminescence as a measure of living cells.)

One assay has as its system KG-1. It counts as cell-based, human. The following applies: Homo sapiens, KG-1, anti-cell proliferation. On the procedure:
(§1) Human medulla thyroid carcinoma cell line TT (containing RET […] mutation) and acute myelogenous cell line KG-1 were purchased from ATCC. Human colon cancer cell line KMI2 (containing TPM3-TRKA) was obtained from NCI.
(§2) Two thousand cells per well were seeded in 384 well white plate for 24 hrs, and then treated with compounds for 72 hours (37° C., 5% CO2). Cell proliferation was measured using CellTiter-Glo luciferase-based ATP detection assay (Promega) following the manufactures's protocol. IC50 determinations were performed using GraphPad Prism software (GraphPad, Inc., San Diego, Calif.).

The subject of a further assay is KM12 cell (TPM3-TRKA). The format is cell-based, human. The following applies: Homo sapiens, KM12, anti-cell proliferation. As for the experimental part: as §1, §2
A further assay has as its target T1, BaF3 KIF5B-RET_V804M (Homo sapiens, UniProt P07949, V804M, cells depend on it).
T1 construct: fused on or other part: P33176 (Kinesin-1 heavy chain)
The format is cell-based. Conditions: anti-cell proliferation, read-out: BaF3 KIF5B-RET_V804M IC50.
Excerpt: (§3) The KIF5B-RET gene was synthesized at GenScript and cloned into pCDH-CMV-MCS-EF1-Puro plasmid (System Biosciences, Inc). KIF5B-RET point mutation V804M was generated at GenScript by PCR and confirmed by sequencing. Ba/F3-KIF5B-RET wild type and mutant were generated by transducing Ba/F3 cells with lentivirus containing KIF5B-RET wide type or mutant. Stable cell lines were selected by puromycin treatment, followed by IL-3 withdrawal. Briefly, 5×10^6 Ba/F3 cells were transduced with lentivirus supernatant in the presence of 8 μg/mL protamine sulfate. The transduced cells were subsequently selected with 1 µg/mL puromycin in the presence of IL3-containing medium RPMI1640, plus 10% FBS. After 10-12 days of selection, the surviving cells were further selected for IL3 independent growth.
as §2

In a further assay the target is T2, BaF3 KIF5B-RET (Homo sapiens, UniProt P07949).
T2 construct: fused on or other part: P33176 (Kinesin-1 heavy chain)
T2 sequence (P07949 whole entry, change not shown, the tested form may be a part): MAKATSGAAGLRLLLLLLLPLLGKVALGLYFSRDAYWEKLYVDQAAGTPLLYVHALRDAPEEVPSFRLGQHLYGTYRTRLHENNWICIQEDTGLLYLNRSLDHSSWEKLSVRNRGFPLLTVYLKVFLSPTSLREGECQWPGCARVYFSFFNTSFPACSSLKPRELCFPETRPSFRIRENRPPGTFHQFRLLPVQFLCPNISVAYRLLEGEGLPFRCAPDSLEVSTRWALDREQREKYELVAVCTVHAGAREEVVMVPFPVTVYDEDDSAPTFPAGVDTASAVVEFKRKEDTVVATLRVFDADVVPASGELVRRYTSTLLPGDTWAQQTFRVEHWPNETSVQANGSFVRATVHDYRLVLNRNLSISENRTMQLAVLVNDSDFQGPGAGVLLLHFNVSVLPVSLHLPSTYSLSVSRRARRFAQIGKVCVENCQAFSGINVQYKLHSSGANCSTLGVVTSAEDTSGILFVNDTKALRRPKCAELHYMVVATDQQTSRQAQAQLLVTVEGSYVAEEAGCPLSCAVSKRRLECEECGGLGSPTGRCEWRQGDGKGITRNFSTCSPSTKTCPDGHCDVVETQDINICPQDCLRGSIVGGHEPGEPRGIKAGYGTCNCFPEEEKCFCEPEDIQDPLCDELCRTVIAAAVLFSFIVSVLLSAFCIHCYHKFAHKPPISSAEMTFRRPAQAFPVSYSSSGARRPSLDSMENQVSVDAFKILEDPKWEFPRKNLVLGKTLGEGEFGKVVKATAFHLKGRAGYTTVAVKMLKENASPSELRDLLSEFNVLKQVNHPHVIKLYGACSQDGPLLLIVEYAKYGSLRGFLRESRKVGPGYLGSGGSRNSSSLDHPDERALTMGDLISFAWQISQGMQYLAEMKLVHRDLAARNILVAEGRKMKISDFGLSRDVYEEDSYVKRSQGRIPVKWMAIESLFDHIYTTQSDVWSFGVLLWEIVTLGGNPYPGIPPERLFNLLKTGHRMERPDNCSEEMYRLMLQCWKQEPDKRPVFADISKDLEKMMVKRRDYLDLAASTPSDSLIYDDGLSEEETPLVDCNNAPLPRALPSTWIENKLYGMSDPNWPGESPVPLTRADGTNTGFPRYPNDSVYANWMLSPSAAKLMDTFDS
The format is cell-based. The following applies: anti-cell proliferation, read-out: BaF3 KIF5B-RET IC50.
Excerpt: as §3, §2

The target in the next assay is T3, BaF3 KIF5B-RET_G810R (Homo sapiens, UniProt P07949, G810R, cells depend on it).
T3 construct: fused on or other part: P33176 (Kinesin-1 heavy chain)
T3 sequence (P07949 whole entry G810R, the tested form may be a part): as the sequence (P07949 whole entry, change not shown, the tested form may be a part) above, with G810R counted along it
It counts as cell-based. The following applies: anti-cell proliferation, read-out: BaF3 KIF5B-RET_G810R IC50.
Excerpt: [The source words this procedure for another variant and reports this variant under the same test.] as §3, §2

The target of the next assay is T4, BaF3 EML4-ALK (Homo sapiens, UniProt Q9UM73).
T4 construct: The EML4-ALK gene (variant 1) was synthesized at GenScript and cloned into pCDH-CMV-MCS-EF1-Puro plasmid (System Biosciences, Inc); fused on or other part: Q9HC35 (Echinoderm microtubule-associated protein-like 4)
T4 sequence (Q9UM73 whole entry, change not shown, the tested form may be a part): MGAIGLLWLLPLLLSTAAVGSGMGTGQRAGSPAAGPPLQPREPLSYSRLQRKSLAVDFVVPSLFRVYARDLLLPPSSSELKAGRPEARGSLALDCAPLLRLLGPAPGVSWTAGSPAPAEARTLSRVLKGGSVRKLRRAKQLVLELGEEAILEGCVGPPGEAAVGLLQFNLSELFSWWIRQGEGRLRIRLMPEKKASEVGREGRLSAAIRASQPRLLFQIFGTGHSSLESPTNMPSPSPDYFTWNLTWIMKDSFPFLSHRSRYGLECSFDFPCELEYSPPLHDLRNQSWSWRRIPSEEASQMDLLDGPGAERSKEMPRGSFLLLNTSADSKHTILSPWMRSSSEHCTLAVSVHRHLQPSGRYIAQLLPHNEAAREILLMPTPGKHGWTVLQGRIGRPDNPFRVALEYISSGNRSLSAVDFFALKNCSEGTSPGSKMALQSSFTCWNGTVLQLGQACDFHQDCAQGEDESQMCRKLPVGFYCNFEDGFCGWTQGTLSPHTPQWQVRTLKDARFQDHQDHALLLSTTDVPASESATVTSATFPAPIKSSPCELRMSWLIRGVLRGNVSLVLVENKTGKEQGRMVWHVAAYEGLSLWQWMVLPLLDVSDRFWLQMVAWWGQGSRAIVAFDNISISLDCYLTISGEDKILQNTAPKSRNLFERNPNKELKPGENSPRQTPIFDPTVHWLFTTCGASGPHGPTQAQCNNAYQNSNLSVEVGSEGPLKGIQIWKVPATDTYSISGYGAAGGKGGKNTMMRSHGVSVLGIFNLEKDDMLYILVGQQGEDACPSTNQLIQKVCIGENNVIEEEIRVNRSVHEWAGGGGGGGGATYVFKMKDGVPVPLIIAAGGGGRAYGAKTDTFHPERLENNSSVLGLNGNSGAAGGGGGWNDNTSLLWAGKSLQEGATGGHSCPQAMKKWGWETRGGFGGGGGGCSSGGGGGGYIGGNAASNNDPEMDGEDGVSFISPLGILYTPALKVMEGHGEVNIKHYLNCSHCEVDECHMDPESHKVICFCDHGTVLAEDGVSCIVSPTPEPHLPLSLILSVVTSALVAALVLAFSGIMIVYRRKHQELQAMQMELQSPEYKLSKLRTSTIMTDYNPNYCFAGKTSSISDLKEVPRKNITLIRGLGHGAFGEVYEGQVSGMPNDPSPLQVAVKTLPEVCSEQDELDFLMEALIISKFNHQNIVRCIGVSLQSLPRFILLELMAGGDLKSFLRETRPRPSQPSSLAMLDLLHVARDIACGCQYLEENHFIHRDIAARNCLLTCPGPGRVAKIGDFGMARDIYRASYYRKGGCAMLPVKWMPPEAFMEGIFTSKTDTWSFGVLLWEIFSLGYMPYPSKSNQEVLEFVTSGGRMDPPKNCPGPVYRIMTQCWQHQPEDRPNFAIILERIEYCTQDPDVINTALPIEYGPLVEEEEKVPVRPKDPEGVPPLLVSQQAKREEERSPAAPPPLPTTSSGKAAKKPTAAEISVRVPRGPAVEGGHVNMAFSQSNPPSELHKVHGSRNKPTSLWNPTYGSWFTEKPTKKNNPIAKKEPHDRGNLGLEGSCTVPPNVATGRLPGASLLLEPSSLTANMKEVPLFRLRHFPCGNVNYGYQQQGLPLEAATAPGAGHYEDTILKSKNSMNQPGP
The format is cell-based. Conditions: anti-cell proliferation. As for the experimental part:
The EML4-ALK gene (variant 1) was synthesized at GenScript and cloned into pCDH-CMV-MCS-EF1-Puro plasmid (System Biosciences, Inc). Ba/F3-EML4-ALK wild type were generated by transducing Ba/F3 cells with lentivirus containing EML4-ALK wide type. Stable cell lines were selected by puromycin treatment, followed by IL-3 withdrawal. Briefly, 5×10^6 Ba/F3 cells were transduced with lentivirus supernatant in the presence of 8 μg/mL protamine sulfate. The transduced cells were subsequently selected with 1 μg/mL puromycin in the presence of IL3-containing medium RPMI1640, plus 10% FBS. After 10-12 days of selection, the surviving cells were further selected for IL3 independent growth.
as §2

Broadly, the IC50 is the midpoint of a concentration-inhibition curve.

SMILES strings stand for the structures. Where only a bound is given, the exact number is not on record here.

T1 sequence (P07949 whole entry V804M, the tested form may be a part): as the sequence (P07949 whole entry, change not shown, the tested form may be a part) above, with V804M counted along it

For `CC1CNC(=O)c2cnn3cc4c(nc23)N(Cc2cc(F)cnc2OC1)[C@@H]1CCC[C@@H]1O4` (stereo partly drawn) [Compound 29, (3aR,21aS)-7-fluoro-12-methyl-2,3,3a,11,12,13,14,21a-octahydro-1H,5H,15H-18,20-(metheno)cyclopenta[5,6][1,4]oxazino[4,3-e]pyrazolo[3,4-h]pyrido[2,3-b][1,5,7,11]oxatriazacyclotetradecin-15-one], the IC50 stood at 7.9 nM in the assay on KG-1 and 1.7 nM with KM12 cell (TPM3-TRKA). Also, the GI50 is 1380 nM at BaF3 KIF5B-RET_V804M, 0.3 nM at BaF3 KIF5B-RET, 134 nM on BaF3 KIF5B-RET_G810R and 901 nM at BaF3 EML4-ALK.
`O=C1N[C@@H]2CCC[C@@H]2Oc2ncc(F)cc2CN2c3nc4c1cnn4cc3O[C@H]1CCC[C@H]12` [Compound 24, (3aS,11aR,14aS,21aR)-18-fluoro-2,3,3a,11,11a,12,13,14,14a,21a-decahydro-1H,10H,20H-7,5-(metheno)cyclopenta[b]cyclopenta[5,6][1,4] oxazino[3,4-i]pyrazolo[4,3-f]pyrido[3,2-l][1,4,8,10]oxatriazacyclotridecin-10-one]: the IC50 came out at 8.7 nM in the assay on KG-1 and 2.8 nM in the assay with KM12 cell (TPM3-TRKA). In addition, the GI50 at BaF3 KIF5B-RET_V804M came out at 1220 nM; at BaF3 KIF5B-RET it was 1.8 nM; on BaF3 KIF5B-RET_G810R, 73.6 nM; on BaF3 EML4-ALK, 469 nM.
On to `CC1(C)CNC(=O)c2cnn3cc4c(nc23)N(Cc2cc(F)cnc2OC1)[C@@H]1CCC[C@@H]1O4` [Compound 27, (3aR,21aS)-7-fluoro-12,12-dimethyl-2,3,3a,11,12,13,14,21a-octahydro-1H,5H,15H-18,20-(metheno)cyclopenta[5,6][1,4]oxazino[4,3-e]pyrazolo[3,4-h]pyrido[2,3-b][1,5,7,11]oxatriazacyclotetradecin-15-one], for which the IC50 in the assay on KG-1 and with KM12 cell (TPM3-TRKA) was 0.3 nM in each case. Further, the GI50 at BaF3 KIF5B-RET_V804M was 2000 nM; on BaF3 KIF5B-RET it was less than 0.2 nM; on BaF3 KIF5B-RET_G810R, 63 nM; on BaF3 EML4-ALK, 1000 nM.
Take `CC1(C)COc2ncc(F)cc2CN2c3nc4c(cnn4cc3O[C@H]3CCC[C@H]32)C(=O)N1` [Compound 21, (3aR,20aS)-7-fluoro-12,12-dimethyl-2,3,3a,12,13,20a-hexahydro-1H,5H-17,19-(metheno)cyclopenta[5,6] [1,4]oxazino[3,4-i]pyrazolo[4,3-f]pyrido [3,2-l][1,4,8,10]oxatriazacyclotridecin-14(11H)-one]: the IC50 with KG-1 came to 86.9 nM; with KM12 cell (TPM3-TRKA), 13.8 nM. Besides, the GI50 was 3460 nM on BaF3 KIF5B-RET_V804M, less than 0.2 nM on BaF3 KIF5B-RET, 82 nM at BaF3 KIF5B-RET_G810R and 462 nM on BaF3 EML4-ALK.
For `C[C@H]1CCNC(=O)c2cnn3cc4c(nc23)N(Cc2cc(F)cnc2O1)[C@@H]1CCC[C@@H]1O4` [Compound 15, (3aR,11S,21aS)-7-fluoro-11-methyl-2,3,3a,12,13,14,21a-octahydro-1H,5H, 15H-18,20-(metheno)cyclopenta[5,6] [1,4]oxazino[4,3-e]pyrazolo[3,4-h]pyrido [2,3-b][1,5,7,11]oxatriazacyclotetradecin-15-one], the concentration for half-maximal inhibition (IC50) in the assay with KG-1 turned out to be 5.2 nM; with KM12 cell (TPM3-TRKA), 5.1 nM. Besides, the GI50 at BaF3 KIF5B-RET_V804M is 1240 nM; on BaF3 KIF5B-RET it was 1.1 nM; at BaF3 KIF5B-RET_G810R, 8.7 nM; at BaF3 EML4-ALK, 364 nM.
As to `O=C1NCC2(CCC2)COc2ncc(F)cc2CN2c3nc4c1cnn4cc3O[C@H]1CCC[C@H]12` [Compound 23, (3a′R,21a′S)-7′-fluoro-1′H,2′H,3′H,3a′H, 5′H,11′H,13′H,14′H,15′H,21a′H-spiro[cyclobutane-1,12′-[10,21]dioxa[4,9,14,17,18,19][hexaaza [18,20](metheno)cyclopenta[5,6][1,4]oxazino[4,3-e]pyrazolo[3,4-h]pyrido [2,3-b][1,5,7,11]oxatriazacyclotetradecin]-15′-one], the IC50 in the assay with KG-1 was 228 nM; in the assay on KM12 cell (TPM3-TRKA), 52.9 nM. Besides, the GI50 is 3000 nM on BaF3 KIF5B-RET_V804M, 98.9 nM at BaF3 KIF5B-RET, 422 nM at BaF3 KIF5B-RET_G810R and 1680 nM at BaF3 EML4-ALK.
On to `O=C1NC[C@H](F)COc2ncc(F)cc2CN2c3nc4c1cnn4cc3O[C@H]1CCC[C@H]12` [Compound 38, (3aR,12S,21aS)-7,12-difluoro-2,3,3a,11,12,13,21a-octahydro-1H,5H, 15H-18,20-(metheno)cyclopenta[5,6][1,4] oxazino[4,3-e]pyrazolo[3,4-h]pyrido[2,3-b][1,5,7,11]oxatriazacyclotetradecin-15-one], for which the IC50 with KG-1 and in the assay with KM12 cell (TPM3-TRKA) was less than 0.2 nM throughout. The GI50 on BaF3 KIF5B-RET_V804M is 349 nM; at BaF3 KIF5B-RET, less than 0.2 nM; at BaF3 KIF5B-RET_G810R, 0.3 nM; at BaF3 EML4-ALK, 82.1 nM.
For `C[C@H]1CNC(=O)c2cnn3cc4c(nc23)N(Cc2cc(F)cnc2O1)[C@@H]1COC[C@@H]1O4` [Compound 30, (3aR,11S,20aR)-7-fluoro-11-methyl-1,3,3a,12,13,20a-hexahydro-5H-17,19-(metheno)furo[3′,4′:5,6][1,4]oxazino[3,4-i]pyrazolo[4,3-f]pyrido[3,2-l][1,4,8,10]oxatriazacyclotridecin-14(11H)-one], the figures for the IC50 in the assay with KG-1 and in the assay with KM12 cell (TPM3-TRKA) were 853 nM and 13.5 nM, respectively. For the same molecule, the GI50 was 337 nM at BaF3 KIF5B-RET_V804M, 162 nM on BaF3 KIF5B-RET, 1860 nM at BaF3 KIF5B-RET_G810R and 2000 nM on BaF3 EML4-ALK.
For the molecule `C[C@@H]1CCOc2ncc(F)cc2CN2c3nc4c(cnn4cc3O[C@H]3CCC[C@H]32)C(=O)N1` [Compound 16, (3aR,13R,21aS)-7-fluoro-13-methyl-2,3,3a,11,12,13,14,21a-octahydro-1H,5H, 15H-18,20-(metheno)cyclopenta[5,6] [1,4]oxazino[4,3-e]pyrazolo[3,4-h]pyrido [2,3-b][1,5,7,11]oxatriazacyclotetradecin-15-one], the IC50 in the assay with KG-1 is 47.4 nM; in the assay on KM12 cell (TPM3-TRKA) it was 45.5 nM. Moreover, the GI50 at BaF3 KIF5B-RET_V804M stood at 5000 nM; at BaF3 KIF5B-RET, 16.6 nM; on BaF3 KIF5B-RET_G810R, 41.2 nM; on BaF3 EML4-ALK it was 340 nM.
For `C[C@@H]1COc2ncc(F)cc2CN2c3nc4c(cnn4cc3O[C@H]3CCC[C@H]32)C(=O)N1` [Compound 6, (3aR,12R,20aS)-7-fluoro-12-methyl-2,3,3a,12,13,20a-hexahydro-1H,5H-17-19-(metheno)cyclopenta[5,6][1,4] oxazino[3,4-i]pyrazolo[4,3-f]pyrido[3,2-l][1,4,8,10]oxatriazacyclotridecin-14(11H)-one], the IC50 with KG-1 is 1 nM; in the assay on KM12 cell (TPM3-TRKA) it was 0.2 nM. The GI50 at BaF3 KIF5B-RET_V804M worked out at 573 nM; on BaF3 KIF5B-RET it was 0.2 nM; on BaF3 KIF5B-RET_G810R it was 3 nM; at BaF3 EML4-ALK it was 146 nM.
As for `O=C1NC2(CCC2)COc2ncc(F)cc2CN2c3nc4c1cnn4cc3O[C@H]1CCC[C@H]12` [Compound 22, (3a′R,20a′S)-7′-fluoro-1′H,2′H,3′H,3a′H, 5′H,11′H,13′H,14′H,20a′H-spiro[cyclobutane-1,12′-[10,20]dioxa[4,9,13,16,17,18][hexaaza [17,19](metheno)cyclopenta[5,6][1,4]oxazino[3,4-i]pyrazolo[4,3-f]pyrido [3,2-l][1,4,8,10]oxatriazacyclotridecin]-14′-one], the IC50 in the assay with KG-1 is 156 nM; in the assay with KM12 cell (TPM3-TRKA), 49.3 nM. In addition, the GI50 is 1760 nM at BaF3 KIF5B-RET_V804M, less than 0.2 nM on BaF3 KIF5B-RET, 128 nM at BaF3 KIF5B-RET_G810R and 157 nM at BaF3 EML4-ALK.
Take `C[C@@H]1COc2c(F)cc(F)cc2CN2c3nc4c(cnn4cc3O[C@H]3CCC[C@H]32)C(=O)N1` [Compound 7, (3aR,12R,20aS)-7,9-difluoro-12-methyl-2,3,3a,12,13,20a-hexahydro-1H,5H-17-19-(metheno)cyclopenta[5,6][1,4] oxazino[3,4-i]pyrazolo[4,3-f][1,4,8,10]benzoxatriazacyclotridecin-14(11H)-one]: the IC50 in the assay with KG-1 is 344 nM; in the assay with KM12 cell (TPM3-TRKA), 37 nM. Also, the GI50 on BaF3 KIF5B-RET_V804M was determined as 1840 nM; on BaF3 KIF5B-RET it was 0.2 nM; on BaF3 KIF5B-RET_G810R it was 99.2 nM; on BaF3 EML4-ALK, 675 nM.
